The source of these data is ChEMBL document CHEMBL1158745, “Guttiferone I, a new prenylated benzophenone from Garcinia humilis as a liver X receptor ligand” (J Nat Prod, 2005).

Assay [1] has as its target T1, Oxysterols receptor LXR-beta (Homo sapiens, UniProt P55055).
T1 sequence (P55055 whole entry): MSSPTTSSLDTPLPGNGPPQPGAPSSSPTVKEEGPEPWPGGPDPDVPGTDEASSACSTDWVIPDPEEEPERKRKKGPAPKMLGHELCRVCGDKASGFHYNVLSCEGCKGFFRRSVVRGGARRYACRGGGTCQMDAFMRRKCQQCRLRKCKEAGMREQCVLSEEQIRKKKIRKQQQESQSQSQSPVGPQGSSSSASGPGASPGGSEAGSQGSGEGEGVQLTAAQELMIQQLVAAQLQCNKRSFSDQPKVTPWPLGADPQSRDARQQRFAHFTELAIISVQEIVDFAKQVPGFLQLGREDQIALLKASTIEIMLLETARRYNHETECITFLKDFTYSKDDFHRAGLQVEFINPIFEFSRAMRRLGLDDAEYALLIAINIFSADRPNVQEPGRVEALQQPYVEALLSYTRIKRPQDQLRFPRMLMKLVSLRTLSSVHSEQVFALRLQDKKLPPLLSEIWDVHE
Put plainly: Displacement of [3H2]F3-methylAA from human LXRbeta expressed in Escherichia coli BL21 cells by scintillation proximity assay.

Assay [2] deals with Liver X receptor (LXR alpha AND LXR beta) (Homo sapiens) (UniProt Q13133+P55055). Put plainly: Selectivity ratio of IC50 for human LXRbeta to IC50 for human LXRalpha. Type of assay: protein assay.
Assay [3] has as its target T2, Oxysterols receptor LXR-alpha (Homo sapiens, UniProt Q13133).
T2 sequence (Q13133 whole entry): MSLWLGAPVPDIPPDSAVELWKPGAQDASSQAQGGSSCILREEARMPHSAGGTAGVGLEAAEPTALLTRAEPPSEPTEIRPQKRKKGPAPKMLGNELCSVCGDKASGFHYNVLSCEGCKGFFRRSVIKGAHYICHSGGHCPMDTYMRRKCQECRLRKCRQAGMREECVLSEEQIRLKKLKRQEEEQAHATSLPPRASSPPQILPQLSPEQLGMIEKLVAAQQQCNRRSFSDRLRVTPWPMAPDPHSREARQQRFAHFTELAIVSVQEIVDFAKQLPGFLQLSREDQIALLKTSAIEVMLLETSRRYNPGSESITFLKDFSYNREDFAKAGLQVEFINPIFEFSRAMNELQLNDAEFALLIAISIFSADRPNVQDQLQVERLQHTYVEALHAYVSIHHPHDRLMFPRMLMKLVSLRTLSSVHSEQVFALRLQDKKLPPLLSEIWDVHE
Briefly: Displacement of [3H2]F3-methylAA from human LXRalpha expressed in Escherichia coli BL21 cells by scintillation proximity assay.

SMILES strings stand for the structures. Bounds are passed on as bounds.

For the molecule `CC(C)=CCC/C(C)=C/C[C@H]1C[C@]2(CC=C(C)C)C(=O)[C@@](CC=C(C)C)(C(=O)C(C(=O)c3ccc(O)c(O)c3)=C2O)[C@]1(C)CCC=C(C)C` [GUTTIFERONE I], the values for the IC50 in assay [1] and in assay [3] were greater than 15 µM and 3.4 µM, respectively. In addition, the Ratio IC50 in assay [2] came out at 5.
